Data on 21 compounds can be found in patent publication US20210101874A1, “MICROBIOCIDAL OXADIAZOLE DERIVATIVES” (SYNGENTA PARTICIPATIONS AG, priority 2017, published 2021).

Assay [1] deals with Puccinia recondita f. sp. Tritici. Kind of assay: Puccinia recondita f. sp. tritici / wheat / leaf disc preventative (brown rust). In kind it is in vivo. The conditions noted are these: foliar, 200 ppm in the applied formulation, wheat leaf segments cv. Kanzler, inoculated 1 day after application, compared to untreated, assessed 7 to 9 days after application, read-out: disease control. On the procedure: Leaf disks or leaf segments of various plant species are cut from plants grown in a greenhouse. The cut leaf disks or segments are placed in multiwell plates (24-well format) onto water agar. The leaf disks are sprayed with a test solution before (preventative) or after (curative) inoculation. Compounds to be tested are prepared as DMSO solutions (max. 10 mg/ml) which are diluted to the appropriate concentration with 0.025% Tween20 just before spraying. The inoculated leaf disks or segments are incubated under defined conditions (temperature, relative humidity, light, etc.) according to the respective test system. A single evaluation of disease level is carried out 3 to 14 days after inoculation, depending on the pathosystem. Percent disease control relative to the untreated check leaf disks or segments is then calculated. Wheat leaf segments cv. Kanzler were placed on agar in multiwell plates (24-well format) and sprayed with the formulated test compound diluted in water. The leaf disks were inoculated with a spore suspension of the fungus 1 day after application. The inoculated leaf segments were incubated at 19° C. and 75% relative humidity (rh) under a light regime of 12 hours light/12 hours darkness in a climate cabinet and the activity of a compound was assessed as percent disease control compared to untreated when an appropriate level of disease damage appears in untreated check leaf segments (7 to 9 days after application). The following compounds at 200 ppm in the applied formulation give at least 80% disease control in this test when compared to untreated control leaf disks under the same conditions, which show extensive disease development.

Assay [2] has as its system Glomerella lagenarium (Colletotrichum lagenarium). Kind of assay: Glomerella lagenarium (Colletotrichum lagenarium) liquid culture / cucumber / preventative (anthracnose). The format is cell-based. Particulars: Colletotrichum orbiculare; 20 ppm in the applied formulation; conidia in PDB nutrient broth, 24° C.; 3 to 4 days after application; compared to untreated; read-out: disease control (inhibition of growth measured photometrically). Here is the method:
Mycelia fragments or conidia suspensions of a fungus prepared either freshly from liquid cultures of the fungus or from cryogenic storage, are directly mixed into nutrient broth. DMSO solutions of the test compound (max. 10 mg/ml) are diluted with 0.025% Tween20 by a factor of 50 and 10 µl of this solution is pipetted into a microtiter plate (96-well format). The nutrient broth containing the fungal spores/mycelia fragments is then added to give an end concentration of the tested compound. The test plates are incubated in the dark at 24° C. and 96% relative humidity. The inhibition of fungal growth is determined photometrically after 2 to 7 days, depending on the pathosystem, and percent antifungal activity relative to the untreated check is calculated. Conidia of the fungus from cryogenic storage are directly mixed into nutrient broth (PDB—potato dextrose broth). After placing a (DMSO) solution of test compound into a microtiter plate (96-well format), the nutrient broth containing the fungal spores is added. The test plates are incubated at 24° C. and the inhibition of growth is measured photometrically 3 to 4 days after application. The following compounds at 20 ppm in the applied formulation give at least 80% disease control in this test when compared to untreated control under the same conditions, which show extensive disease development.

Take `CCN(Cc1ccc(-c2noc(C(F)(F)F)n2)cc1)S(=O)(=O)CCC(=O)OC` [Compound 1.36, methyl 3-[ethyl-[[4-[5-(trifluoromethyl)-1,2,4-oxadiazol-3-yl]phenyl]methyl]sulfamoyl]propanoate]: the pest or weed control at 200 ppm in assay [1] was no less than 80%. For the same compound, in assay [2], the inhibition (commonly how much of the control response was suppressed) at 20 ppm is no less than 80%.
Take `CN(Cc1ccc(-c2noc(C(F)(F)F)n2)cc1)S(=O)(=O)N1CCCC1` [Compound 1.44, N-methyl-N-[[4-[5-(trifluoromethyl)-1,2,4-oxadiazol-3-yl]phenyl]methyl] pyrrolidine-1-sulfonamide]: the pest or weed control at 200 ppm in assay [1] is no less than 80%. The inhibition at 20 ppm in assay [2] is no less than 80%.
In the case of `COC(=O)CCS(=O)(=O)N(C)Cc1ccc(-c2noc(C(F)(F)F)n2)cc1` [Compound 1.48, methyl 3-[methyl-[[4-[5-(trifluoromethyl)-1,2,4-oxadiazol-3-yl]phenyl]methyl]sulfamoyl]propanoate], the pest or weed control at 200 ppm in assay [1] is no less than 80%. Also, the inhibition at 20 ppm in assay [2] is no less than 80%.
Regarding `COC(=O)CS(=O)(=O)N(C)Cc1ccc(-c2noc(C(F)(F)F)n2)cc1` [Compound 1.53, methyl 2-[methyl-[[4-[5-(trifluoromethyl)-1,2,4-oxadiazol-3-yl]phenyl]methyl]sulfamoyl]acetate], the pest or weed control at 200 ppm in assay [1] is no less than 80%. The inhibition at 20 ppm in assay [2] was no less than 80%.
Regarding `CC(C)S(=O)(=O)N(C)Cc1ccc(-c2noc(C(F)(F)F)n2)cc1` [Compound 1.54, N-methyl-N-[[4-[5-(trifluoromethyl)-1,2,4-oxadiazol-3-yl]phenyl]methyl] propane-2-sulfonamide], the pest or weed control at 200 ppm in assay [1] was no less than 80%. Besides, the inhibition at 20 ppm in assay [2] was no less than 80%.
Turning to `CCN(Cc1ccc(-c2noc(C(F)(F)F)n2)cc1)S(=O)(=O)Cc1ccccc1` [Compound 1.60, N-ethyl-1-phenyl-N-[[4-[5-(trifluoromethyl)-1,2,4-oxadiazol-3-yl]phenyl]methyl] methanesulfonamide], the pest or weed control at 200 ppm in assay [1] is no less than 80%. Further, the inhibition at 20 ppm in assay [2] was no less than 80%.
In the case of `CCCN(Cc1ccc(-c2noc(C(F)(F)F)n2)cc1)S(=O)(=O)c1ccn(C)n1` [Compound 1.65, 1-methyl-N-propyl-N-[[4-[5-(trifluoromethyl)-1,2,4-oxadiazol-3-yl]phenyl]methyl] pyrazole-3-sulfonamide], in assay [1], the pest or weed control at 200 ppm is no less than 80%. The inhibition at 20 ppm in assay [2] is no less than 80%.
As to `CCCN(Cc1ccc(-c2noc(C(F)(F)F)n2)cc1)S(=O)(=O)N1CCCC1` [Compound 1.68, N-propyl-N-[[4-[5-(trifluoromethyl)-1,2,4-oxadiazol-3-yl]phenyl]methyl] pyrrolidine-1-sulfonamide], the pest or weed control at 200 ppm in assay [1] was no less than 80%. Also, in assay [2], the inhibition at 20 ppm is no less than 80%.
As to `CCCN(Cc1ccc(-c2noc(C(F)(F)F)n2)cc1)S(=O)(=O)CC1CCOC1` (stereo not drawn) [Compound 1.71, N-propyl-1-tetrahydrofuran-3-yl-N-[[4-[5-(trifluoromethyl)-1,2,4-oxadiazol-3-yl]phenyl]methyl] methanesulfonamide], the pest or weed control at 200 ppm in assay [1] was no less than 80%. In addition, in assay [2], the inhibition at 20 ppm was no less than 80%.
Take `CCCN(Cc1ccc(-c2noc(C(F)(F)F)n2)cc1)S(=O)(=O)NC` [Compound 1.80, 3-[4-[[methylsulfamoyl (propyl)amino]methyl]phenyl]-5-(trifluoromethyl)-1,2,4-oxadiazole]: the pest or weed control at 200 ppm in assay [1] is no less than 80%. Besides, in assay [2], the inhibition at 20 ppm is no less than 80%.
For the compound `COC(=O)CCS(=O)(=O)N(Cc1ccc(-c2noc(C(F)(F)F)n2)cc1)OC` [Compound 1.93, methyl 3-[methoxy-[[4-[5-(trifluoromethyl)-1,2,4-oxadiazol-3-yl]phenyl]methyl]sulfamoyl]propanoate], the pest or weed control at 200 ppm in assay [1] was no less than 80%. Further, the inhibition at 20 ppm in assay [2] is no less than 80%.
With `CC(C)N(Cc1ccc(-c2noc(C(F)(F)F)n2)cc1)S(=O)(=O)N1CCCC1` [Compound 1.97, N-isopropyl-N-[[4-[5-(trifluoromethyl)-1,2,4-oxadiazol-3-yl]phenyl]methyl] pyrrolidine-1-sulfonamide], in assay [1], the pest or weed control at 200 ppm is no less than 80%. The inhibition at 20 ppm in assay [2] was no less than 80%.
Turning to `CON(Cc1ccc(-c2noc(C(F)(F)F)n2)cn1)S(=O)(=O)c1ccccc1` [Compound 1.111, N-methoxy-N-[[5-[5-(trifluoromethyl)-1,2,4-oxadiazol-3-yl]-2-pyridyl]methyl] benzenesulfonamide], the pest or weed control at 200 ppm in assay [1] is no less than 80%. Besides, the inhibition at 20 ppm in assay [2] is no less than 80%.
Turning to `C/C=C/S(=O)(=O)NCc1ccc(-c2noc(C(F)(F)F)n2)cc1` [Compound 2.10, (E)-N-[[4-[5-(trifluoromethyl)-1,2,4-oxadiazol-3-yl]phenyl]methyl] prop-1-ene-1-sulfonamide], in assay [1], the pest or weed control at 200 ppm was no less than 80%. Moreover, the inhibition at 20 ppm in assay [2] was no less than 80%.
Regarding `CCCCS(=O)(=O)NCc1ccc(-c2noc(C(F)(F)F)n2)cc1` [Compound 2.12, N-[[4-[5-(trifluoromethyl)-1,2,4-oxadiazol-3-yl]phenyl]methyl] butane-1-sulfonamide], in assay [1], the pest or weed control at 200 ppm was no less than 80%. Moreover, the inhibition at 20 ppm in assay [2] is no less than 80%.
In the case of `O=S(=O)(CCC(F)(F)F)NCc1ccc(-c2noc(C(F)(F)F)n2)c(F)c1` [Compound 2.18, 3,3,3-trifluoro-N-[[3-fluoro-4-[5-(trifluoromethyl)-1,2,4-oxadiazol-3-yl]phenyl]methyl] propane-1-sulfonamide], the pest or weed control at 200 ppm in assay [1] was no less than 80%. For the same compound, the inhibition at 20 ppm in assay [2] was no less than 80%.
With `CCCCS(=O)(=O)NCc1ccc(-c2noc(C(F)(F)F)n2)c(F)c1` [Compound 2.22, N-[[3-fluoro-4-[5-(trifluoromethyl)-1,2,4-oxadiazol-3-yl]phenyl]methyl] butane-1-sulfonamide], in assay [1], the pest or weed control at 200 ppm was no less than 80%. Further, in assay [2], the inhibition at 20 ppm was no less than 80%.
Consider `COC(=O)CCS(=O)(=O)NCc1ccc(-c2noc(C(F)(F)F)n2)cc1F` [Compound 2.33, methyl 3-[[2-fluoro-4-[5-(trifluoromethyl)-1,2,4-oxadiazol-3-yl]phenyl]methyl-sulfamoyl] propanoate], for which the pest or weed control at 200 ppm in assay [1] is no less than 80%. In addition, the inhibition at 20 ppm in assay [2] is no less than 80%.
Regarding `COC(=O)CS(=O)(=O)NCc1ccc(-c2noc(C(F)(F)F)n2)cc1F` [Compound 2.37, methyl 2-[[2-fluoro-4-[5-(trifluoromethyl)-1,2,4-oxadiazol-3-yl]phenyl]methyl-sulfamoyl] acetate], the pest or weed control at 200 ppm in assay [1] is no less than 80%. For the same compound, the inhibition at 20 ppm in assay [2] is no less than 80%.
Consider `O=S(=O)(NCc1ccc(-c2noc(C(F)(F)F)n2)c(F)c1)c1ccccc1` [Compound 3.9, N-[[3-fluoro-4-[5-(trifluoromethyl)-1,2,4-oxadiazol-3-yl]phenyl]methyl] benzenesulfonamide], for which the pest or weed control at 200 ppm in assay [1] is no less than 80%. Further, the inhibition at 20 ppm in assay [2] is no less than 80%.
For `Cc1ccc(S(=O)(=O)NCc2ccc(-c3noc(C(F)(F)F)n3)cc2)s1` [Compound 3.11, 5-methyl-N-[[4-[5-(trifluoromethyl)-1,2,4-oxadiazol-3-yl]phenyl]methyl] thiophene-2-sulfonamide], in assay [1], the pest or weed control at 200 ppm is no less than 80%. Moreover, the inhibition at 20 ppm in assay [2] was no less than 80%.
